# Source: patent US20170065500A1, “Activation of Hydrogen Peroxide” (Revlon Consumer Products Corporation, priority 2015, published 2017)
# Legend:
# S. epidermidis = assay: Bacterial colonies on agar petri dish treated with hydrogen peroxide alone and with UV light; type: cell-based; details: + 265 nm UV light, 15 minutes
# Method: (§1) The bacterial (organism) was plated on a standard agar petri dish and allowed to grow. The colonies were treated with hydrogen peroxide alone and with UV light for 15 minutes. The light growth means light growth is visable but not as fully developed colonies. Heavy growth was fully developed colonies to numerous to count.
# C. xerosis = assay: as above; type: cell-based; details: + 265 nm UV light, 15 minutes
# Method: as §1
compound,measurement,setting,value
OO [Hydrogen peroxide],bacterial growth after treatment,S. epidermidis,Very
same,bacterial growth after treatment,C. xerosis,No
